Measurements: patent US5681846A (priority 1995, dated 1997)
Entries after “also recorded” stand apart in the source; their conditions may differ. Like-named read-outs stand apart in the source and are kept apart here.

How the values were obtained:
[1] = tested on: tubulin; conditions: cited from earlier work
[2] = Turbidimetric assessment of paclitaxel test solutions; type: physicochemical; conditions: during the study
Protocol: (§1) Aliquots were removed from each bag initially and after 1, 3, 5, and 7 days and stored in 2-ml sterile vials at -70° C. Grossly precipitated solutions were assayed after 31 days of storage. Duplicate HPLC determinations were performed on the aliquots from each test solution.
(§2) Physical compatibility was evaluated by visual examination and turbidimetric quantification. […] The tubes and caps were triple-washed in high-performance liquid chromatography-grade water and rinsed exteriorly with ethanol. To minimize the effects of scratches and imperfections in the glass, a thin layer of silicone oil was applied to the exterior of the culture tubes.
Turbidimetric assessments of the normally hazy paclitaxel solutions were made using a color-correcting turbidimeter (Hatch, Loveland, Colo.). The turbidimeter was calibrated in the manner described previously (Trissel et al., 1992). Triplicate determinations were made for each sample; the turbidimeter was allowed to return to zero between determinations. Incompatibility has been defined as an increase in turbidity of 0.5 nephelometric turbidity unit (NTU) or more (Trissel et al., 1993).
(§3) Visual inspections and turbidimetric assessments were performed initially and after 1, 3, 5, 7, 14, and 31 days of storage at each temperature protected from light.

[3] = type: physicochemical; conditions: for Precipitation Time (earliest among triplicate samples): Cremophor EL 8.3%
Excerpt: Physical stability testing of extended stability formulations has been evaluated for the effects of changing alcohol concentration on precipitation times in infusion solutions.
In the 15 to 20% range, the time to precipitation varied from about 9 to 14 days in most samples. […] Within the 15 to 20% group, however, the time to precipitation was variable and not linearly related to alcohol content.
^a Cremophor ® EL concentration held constant at 8.3%, the same a
^b Earliest precipitation among triplicate samples.

[4] = Chemical stability of paclitaxel in infusion solutions by HPLC; type: physicochemical; conditions: 0.1 and 1 mg/mL; D5W and 0.9% NaCl
Protocol: The liquid chromatograph consisted of a multisolvent delivery pump (Waters Chromatography, Milford, Mass.), a programmable multiple-wavelength ultraviolet light detector (Waters), a WISP autosampler,(Waters) and a HPLC analytical column (Vydac, Hesperia, Calif.) (250×4.6 mm, 5 μm particle size). The system was controlled and integrated by a personal computer (NEC, Boxborough, Mass.). The mobile phase consisted of 53% acetonitrile in water. The flow rate was 1.5 ml/min and detection was performed at 254 nm. […] Sample aliquots were filtered through 5 μm filter needle.
Precision expressed as percent relative standard deviation was 0.76%. Calibration curves were constructed from a linear plot of peak area versus concentration (0,025 to 0.15 mg/mL). […] The intra-day and inter-day coefficients of variation were 1.4% and 2.0%, respectively.
Aliquots were removed from each bag initially and after 1, 3, 5, and 7 days and stored in 2-ml sterile vials at -70° C. […] Duplicate HPLC determinations were performed on the aliquots from each test solution.

[5] = tested on: cell replication; conditions: in vitro; cited from earlier work
[6] = cited from earlier work
[7] = Visual examination of paclitaxel test solutions (physical compatibility); type: physicochemical; set-up: key to Visual observation: --: Light blue hazy solution free of particulate matter; conditions: for Visual observation, all samples: days 1 and 3
Protocol: as §1, §2
Visual examination of the samples was performed with the unaided eye in normal laboratory fluorescent light. Samples with no obvious visual incompatibility were further examined using a Tyndall beam (high-intensitymonodirectional light source)(Dolan-Jenner, Woburn, Mass.). The test tubes were illuminated from below and viewed at a 90° angle against a dark background to enhance the visibility of small particles.
as §3

[8] = tested on: lymphoma, breast cancer; conditions: cited from earlier work

For `CC(=O)O[C@H]1C(=O)[C@@]2(C)[C@H]([C@H](OC(=O)c3ccccc3)[C@]3(O)C[C@H](OC(=O)[C@H](O)[C@@H](NC(=O)c4ccccc4)c4ccccc4)C(C)=C1C3(C)C)[C@]1(OC(C)=O)CO[C@@H]1C[C@@H]2O` [paclitaxel], which tubulin polymerization [1] is on record?
Its tubulin polymerization is “markedly enhances all aspects of tubulin polymerization; initiation and elongation are more rapid”.

What about the change in turbidity [2] of the same molecule?
The change in turbidity was “did not result in any change during the study except for samples with noticeable precipitation”.

And the “Precipitation Time (earliest among triplicate samples)” value (shortened to “Precipitation Time”) ([3]; 1 mg/mL in D5W, alcohol 15%)?
Its value is 14 days.

What about the “Precipitation Time” value ([3]; 1 mg/mL in D5W, alcohol 16%) of the same molecule?
Its value is 12 days.

And the “Precipitation Time” value ([3]; 1 mg/mL in D5W, alcohol 17%)?
Its value is 10 days.

And the “Precipitation Time” value ([3]; 1 mg/mL in D5W, alcohol 18%)?
The value was 12 days.

And the “Precipitation Time” value ([3]; 1 mg/mL in D5W, alcohol 19%)?
The value was 9 days.

And the “Precipitation Time” value ([3]; 1 mg/mL in D5W, alcohol 20%)?
Its value is 9 days.

And the gross precipitation ([3]; 1 mg/mL in D5W, alcohol 25%)?
The gross precipitation was 21 days.

What about the “Precipitation Time” value ([3]; 1 mg/mL in D5W, alcohol 25%) of the same molecule?
Its value is 14 days.

And the earliest microprecipitation ([3]; 1 mg/mL in D5W, alcohol 25%, one sample)?
Its earliest microprecipitation is 14 days.

And the “Precipitation Time” value ([3]; 1 mg/mL in D5W, alcohol 30%)?
The value was greater than 60 days.

And the “storage time without precipitation or microcrystals” value ([3]; 1 mg/mL in D5W, alcohol 30 and 50%, any sample)?
The value was greater than 60 days.

And the “Precipitation Time” value ([3]; 1 mg/mL in D5W, alcohol 50%)?
Its value is greater than 60 days.

What about the “precipitation among triplicate samples” value ([3]; alcohol 19% and 20% (footnote c)) of the same molecule?
The value was “One sample precipitated at 9 days, 2 samples at 14 days or more”.

And the “precipitation among triplicate samples” value ([3]; alcohol 25% (footnote d))?
Its value is “One sample did not precipitated after 60 days”.

What about the “precipitation among triplicate samples” value ([3]; alcohol 30% and 50% (footnote e)) of the same molecule?
Its value is “All three samples were still in solution after 60 days”.

And the “decomposition products on HPLC chromatograms” value [4]?
Its value is “No decomposition products appeared on the HPLC chromatograms”.

And the “inhibition of cell replication” value [5]?
The value was “potent inhibitor of cell replication in vitro”.

What about the “appearance after dilution in infusion fluids” value ([6]; clinical formulation diluted in intravenous infusion fluids) of the same molecule?
Its value is “slight haze and, occasionally, a few minute particles”.

What about the “physical stability in aqueous solutions” value ([6]; clinical formulation) of the same molecule?
The value was “physically unstable, and in aqueous solutions exhibits the formation of paclitaxel precipitate”.

What about the “precipitation observed visually / by Tyndall beam” value ([7]; 0.1 and 1 mg/mL, D5W and 0.9% NaCl) of the same molecule?
The value was “all samples were initially free of particulate matter but had paclitaxel's normal haze; also recorded: Large amounts of white flocculent precipitate appeared after 31 days of storage in many of the samples and after 14 days in a few samples; also recorded: Two samples had small amounts of crystalline precipitate within five days of storage; also recorded: Most samples had crystalline precipitation within a week”.

And the “chemical stability and physical compatibility time” value ([7]; 0.1 and 1 mg/mL, D5W and 0.9% NaCl, 4, 22, 32 °C)?
The value was “All samples remained compatible in both infusion solutions for at least three days; also recorded: chemically stable and physically compatible for three days”.

And the Visual observation ([7]; 0.9% NaCl, 0.1 mg/mL, 4 °C, day 0)?
The Visual observation was “--”.

And the Visual observation ([7]; 0.9% NaCl, 0.1 mg/mL, 4 °C, day 7)?
Its Visual observation is “Tiny crystals”.

And the Visual observation ([7]; 0.9% NaCl, 0.1 mg/mL, 22 °C, day 0)?
The Visual observation was “--”.

What about the Visual observation ([7]; 0.9% NaCl, 0.1 mg/mL, 22 °C, day 5) of the same molecule?
Its Visual observation is “--”.

What about the Visual observation ([7]; 0.9% NaCl, 0.1 mg/mL, 22 °C, day 7) of the same molecule?
The Visual observation was “Tiny crystals”.

What about the Visual observation ([7]; 0.9% NaCl, 0.1 mg/mL, 32 °C, day 0) of the same molecule?
The Visual observation was “--”.

And the Visual observation ([7]; 0.9% NaCl, 0.1 mg/mL, 32 °C, day 5)?
Its Visual observation is “--”.

What about the Visual observation ([7]; 0.9% NaCl, 0.1 mg/mL, 32 °C, day 7) of the same molecule?
Its Visual observation is “Tiny crystals”.

What about the Visual observation ([7]; 0.9% NaCl, 1 mg/mL, 4 °C, day 0) of the same molecule?
Its Visual observation is “--”.

And the Visual observation ([7]; 0.9% NaCl, 1 mg/mL, 4 °C, day 5)?
The Visual observation was “--”.

And the Visual observation ([7]; 0.9% NaCl, 1 mg/mL, 4 °C, day 7)?
Its Visual observation is “Tiny crystals”.

And the Visual observation ([7]; 0.9% NaCl, 1 mg/mL, 22 °C, day 0)?
Its Visual observation is “--”.

What about the Visual observation ([7]; 0.9% NaCl, 1 mg/mL, 22 °C, day 5) of the same molecule?
The Visual observation was “--”.

What about the Visual observation ([7]; 0.9% NaCl, 1 mg/mL, 22 °C, day 7) of the same molecule?
The Visual observation was “Tiny crystals”.

And the Visual observation ([7]; 0.9% NaCl, 1 mg/mL, 32 °C, day 0)?
Its Visual observation is “--”.

And the Visual observation ([7]; 0.9% NaCl, 1 mg/mL, 32 °C, day 5)?
The Visual observation was “--”.

What about the Visual observation ([7]; 0.9% NaCl, 1 mg/mL, 32 °C, day 7) of the same molecule?
The Visual observation was “Tiny crystals”.

And the Visual observation ([7]; 0.9% NaCl, 1 mg/mL, 32 °C, day 14)?
The Visual observation was “Tiny crystals”.

And the “Visual observation, all samples” value ([7]; 0.9% NaCl)?
The value was “particulatefree”.

And the Visual observation ([7]; 5% dextrose, 0.1 mg/mL, 4 °C, day 0)?
Its Visual observation is “--”.

What about the Visual observation ([7]; 5% dextrose, 0.1 mg/mL, 4 °C, day 5) of the same molecule?
Its Visual observation is “--”.

And the Visual observation ([7]; 5% dextrose, 0.1 mg/mL, 4 °C, day 7)?
The Visual observation was “--”.

And the Visual observation ([7]; 5% dextrose, 0.1 mg/mL, 4 °C, day 14)?
Its Visual observation is “--”.

What about the Visual observation ([7]; 5% dextrose, 0.1 mg/mL, 22 °C, day 0) of the same molecule?
Its Visual observation is “--”.

What about the Visual observation ([7]; 5% dextrose, 0.1 mg/mL, 22 °C, day 5) of the same molecule?
The Visual observation was “--”.

And the Visual observation ([7]; 5% dextrose, 0.1 mg/mL, 32 °C, day 0)?
Its Visual observation is “--”.

And the Visual observation ([7]; 5% dextrose, 0.1 mg/mL, 32 °C, day 5)?
The Visual observation was “--”.

And the Visual observation ([7]; 5% dextrose, 1 mg/mL, 4 °C, day 0)?
The Visual observation was “--”.

What about the Visual observation ([7]; 5% dextrose, 1 mg/mL, 22 °C, day 0) of the same molecule?
Its Visual observation is “--”.

And the Visual observation ([7]; 5% dextrose, 1 mg/mL, 22 °C, day 5)?
Its Visual observation is “--”.

What about the Visual observation ([7]; 5% dextrose, 1 mg/mL, 32 °C, day 0) of the same molecule?
Its Visual observation is “--”.

What about the Visual observation ([7]; 5% dextrose, 1 mg/mL, 32 °C, day 5) of the same molecule?
Its Visual observation is “--”.

And the “Visual observation, all samples” value ([7]; 5% dextrose)?
The value was “particulatefree”.

What about the “activity in clinical trials” value [8] of the same molecule?
Its value is “has shown activity against lymphoma, breast cancer, and possibly other tumors”.
